Data: ChEMBL document CHEMBL4052764, “Development of a prodrug of hydantoin based TACE inhibitor” (Bioorg Med Chem Lett, 2017)
pIC50: −log10 of the molar value. Values after ≈ are worked out from the molar mass of the structure shown.

Legend:
Rattus norvegicus [1] = assay: AUC in rat assessed as (S)-5-(furo[3,2-b]pyridin-2-yl)-5-((6-methoxy-1-oxoisoindolin-2-yl)methyl)imidazolidine-2,4-dione level at 10 mg/kg, po by HPLC/MS analysis; assay type: ADME, organism-based; settings: in vivo
[2] = AUC in monkey at 10 mg/kg, po by LC/MS/MS analysis; assay type: ADME, organism-based, Macaca mulatta; settings: rhesus monkey, in vivo
[3] = AUC in dog at 10 mg/kg, po by LC/MS/MS analysis; assay type: ADME, organism-based, Canis lupus familiaris; settings: in vivo
[4] = Oral bioavailability in dog at 10 mg/kg by LC/MS/MS analysis; assay type: ADME, organism-based, Canis lupus familiaris; settings: in vivo
[5] = Oral bioavailability in rat at 10 mg/kg by LC/MS/MS analysis; assay type: ADME, organism-based; settings: in vivo
[6] = AUC in rat at 10 mg/kg, po by LC/MS/MS analysis; assay type: ADME, organism-based; settings: in vivo
[7] = Oral bioavailability in monkey at 10 mg/kg by LC/MS/MS analysis; assay type: ADME, organism-based, Macaca mulatta; settings: rhesus monkey, in vivo
[8] = AUC in rat at 500 mg/kg, po administered as single dose by LC/MS/MS analysis; assay type: ADME, organism-based; settings: in vivo
[9] = AUC in rat at 10 mg/kg, po by HPLC/MS analysis; assay type: ADME, organism-based; settings: in vivo
[10] = molecular target: Disintegrin and metalloproteinase domain-containing protein 17 (Homo sapiens, UniProt P78536); assay: Inhibition of TACE in human whole blood assessed as inhibition of LPS-stimulated TNFalpha production pretreated for 1 hr followed by LPS stimulation for 3.5 hrs by ELISA
Disintegrin and metalloproteinase domain-containing protein 17, sequence (P78536 whole entry, the tested form may be a part): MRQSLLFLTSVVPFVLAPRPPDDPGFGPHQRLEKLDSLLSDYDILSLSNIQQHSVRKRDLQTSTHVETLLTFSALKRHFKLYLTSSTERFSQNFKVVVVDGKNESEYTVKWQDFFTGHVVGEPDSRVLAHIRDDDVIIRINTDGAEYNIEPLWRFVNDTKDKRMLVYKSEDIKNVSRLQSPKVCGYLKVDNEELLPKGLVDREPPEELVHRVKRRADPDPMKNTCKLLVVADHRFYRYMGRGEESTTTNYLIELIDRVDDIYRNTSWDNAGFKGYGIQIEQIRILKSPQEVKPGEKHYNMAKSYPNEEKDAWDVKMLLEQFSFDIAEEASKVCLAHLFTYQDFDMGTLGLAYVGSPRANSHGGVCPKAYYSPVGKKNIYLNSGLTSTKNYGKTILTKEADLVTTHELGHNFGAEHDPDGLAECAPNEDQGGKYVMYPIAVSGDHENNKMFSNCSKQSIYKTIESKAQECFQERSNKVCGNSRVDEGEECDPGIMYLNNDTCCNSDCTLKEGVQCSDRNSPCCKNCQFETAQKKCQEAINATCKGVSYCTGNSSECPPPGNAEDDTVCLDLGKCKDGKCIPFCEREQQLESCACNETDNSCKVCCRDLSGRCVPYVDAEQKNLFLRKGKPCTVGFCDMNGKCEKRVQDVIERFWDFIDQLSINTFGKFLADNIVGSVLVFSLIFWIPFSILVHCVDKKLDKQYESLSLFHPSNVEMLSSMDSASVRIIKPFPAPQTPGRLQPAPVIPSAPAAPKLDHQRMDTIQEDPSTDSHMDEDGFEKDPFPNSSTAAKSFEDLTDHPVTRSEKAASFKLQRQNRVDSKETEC

[11] = Permeability in human Caco2 cells at pH 7.4; assay type: ADME, cell-based; settings: Caco-2, pH 7.4, read-out: permeability
[12] = AUC in rat at 100 mg/kg, po administered as single dose by LC/MS/MS analysis; assay type: ADME, organism-based; settings: in vivo
[13] = AUC in rat at 300 mg/kg, po administered as single dose by LC/MS/MS analysis; assay type: ADME, organism-based; settings: in vivo
[14] = Solubility of the compound at pH 6.5; assay type: physicochemical; settings: buffer
Liver [15] = assay: Prodrug activation in rat liver microsomes assessed as (S)-5-(furo[3,2-b]pyridin-2-yl)-5-((6-methoxy-1-oxoisoindolin-2-yl)methyl)imidazolidine-2,4-dione formation; assay type: microsome
Rhesus monkey = assay: Oral bioavailability in monkey assessed as (S)-5-(furo[3,2-b]pyridin-2-yl)-5-((6-methoxy-1-oxoisoindolin-2-yl)methyl)imidazolidine-2,4-dione level by LC/MS/MS analysis; assay type: ADME, organism-based, Macaca mulatta; settings: in vivo
Canis familiaris = assay: Oral bioavailability in dog assessed as (S)-5-(furo[3,2-b]pyridin-2-yl)-5-((6-methoxy-1-oxoisoindolin-2-yl)methyl)imidazolidine-2,4-dione level by LC/MS/MS analysis; assay type: ADME, organism-based, Canis lupus familiaris; settings: in vivo
Rattus norvegicus [16] = assay: AUC in rat assessed as (S)-5-(furo[3,2-b]pyridin-2-yl)-5-((6-methoxy-1-oxoisoindolin-2-yl)methyl)imidazolidine-2,4-dione level at 100 mg/kg, po administered as single dose by LC/MS/MS analysis; assay type: ADME, organism-based; settings: in vivo
Rattus norvegicus [17] = assay: AUC in rat assessed as (S)-5-(furo[3,2-b]pyridin-2-yl)-5-((6-methoxy-1-oxoisoindolin-2-yl)methyl)imidazolidine-2,4-dione level at 300 mg/kg, po administered as single dose by LC/MS/MS analysis; assay type: ADME, organism-based; settings: in vivo
Liver [18] = assay: Prodrug activation in dog liver microsomes assessed as (S)-5-(furo[3,2-b]pyridin-2-yl)-5-((6-methoxy-1-oxoisoindolin-2-yl)methyl)imidazolidine-2,4-dione formation; assay type: Canis lupus familiaris, microsome
Rattus norvegicus [19] = assay: Oral bioavailability in rat assessed as (S)-5-(furo[3,2-b]pyridin-2-yl)-5-((6-methoxy-1-oxoisoindolin-2-yl)methyl)imidazolidine-2,4-dione level at 10 mg/kg by LC/MS/MS analysis; assay type: ADME, organism-based; settings: in vivo
Liver [20] = assay: Prodrug activation in human liver microsomes assessed as (S)-5-(furo[3,2-b]pyridin-2-yl)-5-((6-methoxy-1-oxoisoindolin-2-yl)methyl)imidazolidine-2,4-dione formation; assay type: microsome
[21] = Prodrug activation in monkey liver microsomes assessed as (S)-5-(furo[3,2-b]pyridin-2-yl)-5-((6-methoxy-1-oxoisoindolin-2-yl)methyl)imidazolidine-2,4-dione formation; assay type: Macaca mulatta, microsome; settings: rhesus monkey
Liver [22] = assay: Prodrug activation in mouse liver microsomes assessed as (S)-5-(furo[3,2-b]pyridin-2-yl)-5-((6-methoxy-1-oxoisoindolin-2-yl)methyl)imidazolidine-2,4-dione formation; assay type: microsome
[23] = Prodrug activation in human intestinal microsomes assessed as (S)-5-(furo[3,2-b]pyridin-2-yl)-5-((6-methoxy-1-oxoisoindolin-2-yl)methyl)imidazolidine-2,4-dione formation; parameters: species or system Intestine, Microsome
Rattus norvegicus [24] = assay: AUC in rat assessed as (S)-5-(furo[3,2-b]pyridin-2-yl)-5-((6-methoxy-1-oxoisoindolin-2-yl)methyl)imidazolidine-2,4-dione level at 500 mg/kg, po administered as single dose by LC/MS/MS analysis; assay type: ADME, organism-based; settings: in vivo
Rattus norvegicus [25] = assay: Oral bioavailability in rat assessed as (S)-5-(5-(4-ethylpiperazin-1-yl)furo[3,2-b]pyridin-2-yl)-5-((7-fluoro-6-methoxy-1-oxoisoindolin-2-yl)methyl)imidazolidine-2,4-dione level at 10 mg/kg by LC/MS/MS analysis; assay type: ADME, organism-based; settings: in vivo
Rattus norvegicus [26] = assay: AUC in rat assessed as (S)-5-(5-(4-ethylpiperazin-1-yl)furo[3,2-b]pyridin-2-yl)-5-((7-fluoro-6-methoxy-1-oxoisoindolin-2-yl)methyl)imidazolidine-2,4-dione level at 10 mg/kg, po by LC/MS/MS analysis; assay type: ADME, organism-based; settings: in vivo

AUC (Rattus norvegicus [1]) [µM·h] | pIC50 [10] | also measured | Structure (SMILES)
0.9 |  |  | CCN1C(=O)N[C@@](CN2Cc3ccc(OC)cc3C2=O)(c2cc3ncccc3o2)C1=O
 |  | AUC [2]: 5.2 µM·h; AUC [3]: 41 µM·h; bioavailability [4]: 82%; bioavailability [5]: 35%; AUC [6]: 10 µM·h; bioavailability [7]: 46% | COc1ccc2c(c1)C(=O)N(C[C@@]1(c3cc4ncccc4o3)NC(=O)NC1=O)C2.[Na+]
 | 6.54 | AUC [8]: 240 µM·h; AUC [9]: 8.6 µM·h; Papp [11]: 1.2 ×10⁻⁶ cm/s; AUC [12]: 120 µM·h; AUC [13]: 130 µM·h; solubility [14]: 39 µM (≈ 15.3 µg/mL) | COc1ccc2c(c1)C(=O)N(C[C@@]1(c3cc4ncccc4o3)NC(=O)NC1=O)C2
4.4 | 6.25 |  | COc1ccc2c(c1)C(=O)N(C[C@@]1(c3cc4ncccc4o3)NC(=O)N(COC(=O)c3ccccc3OC(C)=O)C1=O)C2
13.1 | 6.55 | Drug metabolism (Liver [15]): Metabolite_Detected; F (Rhesus monkey): 92%; F (Canis familiaris): 72%; AUC (Rattus norvegicus [16]): 210 µM·h; Papp [11]: > 11.6 ×10⁻⁶ cm/s; AUC (Rattus norvegicus [17]): 780 µM·h; Drug metabolism (Liver [18]): Metabolite_Detected; F (Rattus norvegicus [19]): 74%; Drug metabolism (Liver [20]): Metabolite_Detected; solubility [14]: 175 µM (≈ 88.6 µg/mL); Drug metabolism [21]: Metabolite_Detected; Drug metabolism (Liver [22]): Metabolite_Detected; Drug metabolism [23]: Metabolite_Detected; AUC (Rattus norvegicus [24]): 1450 µM·h | COc1ccc2c(c1)C(=O)N(C[C@@]1(c3cc4ncccc4o3)NC(=O)N(COC(=O)C(C)(C)C)C1=O)C2
0.05 |  |  | CCOP(=O)(OCC)OCN1C(=O)N[C@@](CN2Cc3ccc(OC)cc3C2=O)(c2cc3ncccc3o2)C1=O
0.6 | 6.98 |  | COc1ccc2c(c1F)C(=O)N(C[C@@]1(c3cc4nc(N5CCNC(=O)C5)ccc4o3)NC(=O)N(COC(=O)C(C)(C)C)C1=O)C2
0.3 | 6.85 |  | COc1ccc2c(c1F)C(=O)N(C[C@@]1(c3cc4nc(-c5cn[nH]c5)ccc4o3)NC(=O)N(COC(=O)C(C)(C)C)C1=O)C2
0.4 | 6.75 |  | COc1ccc2c(c1F)C(=O)N(C[C@@]1(c3cc4nc(N)ccc4o3)NC(=O)N(COC(=O)C(C)(C)C)C1=O)C2
0.02 |  |  | COCCOCCOCCN1C(=O)N[C@@](CN2Cc3ccc(OC)cc3C2=O)(c2cc3ncccc3o2)C1=O
2.7 | 6.47 |  | COc1ccc2c(c1)C(=O)N(C[C@@]1(c3cc4nc(N5CC[C@@H](O)C5)ccc4o3)NC(=O)N(COC(=O)C(C)(C)C)C1=O)C2
0.7 | 6.75 |  | CCN1CCN(c2ccc3oc([C@]4(CN5Cc6ccc(OC)cc6C5=O)NC(=O)N(COC(=O)C(C)(C)C)C4=O)cc3n2)CC1
3.1 |  |  | COc1ccc2c(c1)C(=O)N(C[C@]1(c3cc4ncccc4o3)C(=O)N(COC(=O)C(C)(C)C)C(=O)N1COC(=O)C(C)(C)C)C2
0.4 | 5.15 |  | COc1ccc2c(c1)C(=O)N(C[C@@]1(c3cc4ncccc4o3)NC(=O)N(C(C)C)C1=O)C2
0.9 |  |  | COc1ccc2c(c1)C(=O)N(C[C@@]1(c3cc4ncccc4o3)NC(=O)N(C)C1=O)C2
0.2 | 6.55 |  | COc1ccc2c(c1)C(=O)N(C[C@@]1(c3cc4nc(N5CCCNC5=O)ccc4o3)NC(=O)N(COC(=O)C(C)(C)C)C1=O)C2
8.6 | 7.04 |  | COc1ccc2c(c1F)C(=O)N(C[C@@]1(c3cc4nc(N5CCN(C)CC5)ccc4o3)NC(=O)N(COC(=O)C(C)(C)C)C1=O)C2
20 | 7.21 | F (Rattus norvegicus [25]): 7%; AUC (Rattus norvegicus [26]): 4.7 µM·h | CCN1CCN(c2ccc3oc([C@]4(CN5Cc6ccc(OC)c(F)c6C5=O)NC(=O)N(COC(=O)C(C)(C)C)C4=O)cc3n2)CC1
 | 6.81 |  | COc1ccc2c(c1)C(=O)N(C[C@@]1(c3cc4nc(N5CCNCC5)ccc4o3)NC(=O)N(COC(=O)C(C)(C)C)C1=O)C2
